In US12458637B2, “Targeting WNK1 in blood cancers” (Københavns Universitet, priority 2019, dated 2025):
“Also recorded” adds a separate entry of the source.

How the values were obtained:
MA9 cells [1] = experiment: CellTiter-Glo viability assay, MA9 cells; type: cell-based; conditions: Mus musculus, 72 hours
Procedure: (§1) Dose-response curves were generated using the CellTiter-Glo® assay (Promega: G7570). Cells were seeded in triplicate in round bottom 96 well plates in the presence of varying concentrations of “Compound 12”. After 72 hours the number of viable cells in the cultures were measured using the CellTiter-Glo®. IC50 values were calculated using the Prism software (GraphPad: Prism 7 for Mac OS X).

MEFs = experiment: CellTiter-Glo viability assay, mouse embryonic fibroblasts; type: cell-based
Procedure: as §1

blood cancer cell lines = experiment: CellTiter-Glo viability assay, human cell lines; type: cell-based; conditions: FIG. 5
Procedure: Dose-response curves were generated using the CellTiter-Glo® assay (Promega: G7570). BJ-tert, U2OS, MOLM13, THP1, Monomac, MMS1, KMS18, KMS11, MSTo, and H226, cells were seeded in triplicate in round bottom 96 well plates in the presence of varying concentrations of “Compound 12”. After 72 hours the number of viable cells in the cultures were measured using the CellTiter-Glo®. IC50 values were calculated using the Prism software (GraphPad: Prism 7 for Mac OS X). The experiment show the IC50 values for the different human cell lines (FIG. 5).

WNK1 (P-OXSR1) = experiment: Western blot of Oxsr1 and P-Oxsr1 in MA9 cells; type: cell-based, mouse; conditions: MA9 cells treated for 3 hours
Procedure: Murine MLL-AF9 transformed leukemic cells (MA9) were treated for 3 hours with different concentrations of “Compound 12”. Treated cells were counted and lysed in 1×LSB buffer and an equal to 100.000 cells were loaded on each lane of a 10% SDS-Page gel.
Gels were transferred to nitrocellulose membranes probed with sheep-anti-OXSR1 [S336B] or sheep-anti-P-OXSR1 [S688B] (both from University of Dundee). Binding of the primary antibody was on detected light sensitive films, using rabbit peroxidase conjugated anti-sheep IgG antibody (1 in 30.000 dilution, Abcam: ab6900) followed by enhanced chemiluminescence (Pierce ECL Plus, ThermoFisher: 34577) (FIG. 4B).

MA9 cells [2] = experiment: Growth curves of MA9 cells; type: cell-based, mouse; conditions: varying concentrations, growth curve, FIG. 4C
Procedure: MA9 cell cultures were grown in triplicate in 24 well plates in the presence of varying concentrations of “Compound 12”. Cells were plated with a density of 50.000 cells per well after which they were counted and replated every 3 days.

[3] = tested on: MLL-AF9 translocated leukemia; experiment: In vivo treatment of leukemic mice (MA9 transplanted); design: species or system mouse; conditions: daily injection of 1.8 mg in sun flower oil, mice transplanted with MA9 cells
Procedure: 1×10^4 leukemic cells were injected into the tail vein of sub-lethally irradiated (450 rad) BL6.SJL mice. Two days after transplantation the mice were injected with 1.8 mg “Compound 12” dissolved into 200 μL sun flower oil or sun flower oil alone (control). A total of 26 mice were used in the experiment, where 14 received oil alone and 12 received “Compound 12”.
The injections were continued daily for a period of 20 days.

phosphorylated OXSR1 = conditions: in cells, Yamada et al., 2017; cited from earlier work
blood pressure = conditions: 30 mg/kg single oral dose, rodent hypertension models; cited from earlier work
[4] = 30 mg/kg single oral dose; cited from earlier work
[5] = Yamada et al., 2017; cited from earlier work

[2H]C([2H])([2H])Nc1nc(-c2cc(C(=O)N3CCN(Cc4ccc(Cl)cc4)CC3)c(Cl)cn2)cs1 [Compound 12, (5-Chloro-2-(2-((methyl-d3)amino)thiazol-4-yl)-pyridin-4-yl)(4-(4-chlorobenzyl)piperazin-1-yl)methanone]
IC50 (MA9 cells [1]): ~1000 nM | IC50 (MEFs; Mus musculus, Fibroblast, viability, 72 hours, CellTiter-Glo): > 20000 nM | IC50 in MEFs compared with MA9 cells (MEFs; viability assay, FIG. 4A): significantly higher | Sensitivity of blood cancer cell lines compared with diploid fibroblasts (blood cancer cell lines; human cell lines vs BJ tert): significantly more sensitive | IC50 (blood cancer cell lines; viability, 72 hours, human cell lines, read-out: IC50 of most of the blood cancer cell lines): ~1000 nM | Inhibition of WNK1 (phosphorylated OXSR1, Western blot) (WNK1 (P-OXSR1)): inhibits WNK1 in leukemic cells | Growth / proliferation of MA9 cells (MA9 cells [2]): dose-dependent inhibition; also recorded: inhibits growth; also recorded: attenuated growth | Lifespan of leukemic mice [3]: significantly extend the life-time; also recorded: increases their lifespan; also recorded: increased lifespan | EC50 (phosphorylated OXSR1): 590 nM | Blood pressure (blood pressure): some reduction in blood pressure | Concentration [4]: 2000 nM | Toxicity in mice [5]: low toxicity
